Laboratory results from PubChem BioAssay AID330 (DTP/NCI, 2004).
Several values for one entry are separate records, joined by “and”; a condition that tells them apart may be missing. Equal values may be shown once. Inconclusive results and toxic doses are left out. Rule for the calls: active = survival T/C of 150% or more; inactive = T/C below 125% in these data.

System: P388 leukemia ip, CD2F1 mice, survival T/C
Test: NCI In Vivo Anticancer Drug Screen. Data for tumor model P388 Leukemia (intraperitoneal) in CD2F1 (CDF1) mice
Conditions: endpoint: median survival time, higher = longer survival
In short: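 Mice carrying the transplanted tumor received test compound or vehicle. Survival was recorded in each group, and the value is the treated-group measurement divided by that of the vehicle-treated control group.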

[1] = dose: 50.0 mg/kg/injection, schedule: Q01DX005 (ip), vehicle: Klucel (hydroxypropylcellulose) (HPC)
[2] = dose: 100.0 mg/kg/injection, schedule: Q01DX005 (ip), vehicle: Klucel (hydroxypropylcellulose) (HPC)
[3] = dose: 200.0 mg/kg/injection, schedule: Q01DX005 (ip), vehicle: Klucel (hydroxypropylcellulose) (HPC)
[4] = dose: 50.0 mg/kg/injection, schedule: Q01DX005 (ip), vehicle: saline with Tween-80
[5] = dose: 100.0 mg/kg/injection, schedule: Q01DX005 (ip), vehicle: saline with Tween-80
[6] = dose: 200.0 mg/kg/injection, schedule: Q01DX005 (ip), vehicle: saline with Tween-80
[7] = dose: 50.0 mg/kg/injection, schedule: Q01DX009 (ip), vehicle: saline with Tween-80
[8] = dose: 100.0 mg/kg/injection, schedule: Q01DX009 (ip), vehicle: saline with Tween-80
[9] = dose: 200.0 mg/kg/injection, schedule: Q01DX009 (ip), vehicle: saline with Tween-80
[10] = dose: 25.0 mg/kg/injection, schedule: Q01DX009 (ip), vehicle: saline
[11] = dose: 50.0 mg/kg/injection, schedule: Q01DX009 (ip), vehicle: saline
[12] = dose: 100.0 mg/kg/injection, schedule: Q01DX009 (ip), vehicle: saline
[13] = dose: 200.0 mg/kg/injection, schedule: Q01DX009 (ip), vehicle: saline
[14] = dose: 60.0 mg/kg/injection, schedule: Q01DX005 (ip), vehicle: saline with Tween-80
[15] = dose: 120.0 mg/kg/injection, schedule: Q01DX005 (ip), vehicle: saline with Tween-80
[16] = dose: 240.0 mg/kg/injection, schedule: Q01DX005 (ip), vehicle: saline with Tween-80
[17] = dose: 6.25 mg/kg/injection, schedule: Q01DX009 (ip), vehicle: saline with Tween-80

Measured: T/C

ClC=P(c1ccccc1)(c1ccccc1)c1ccccc1
inactive: dose: 50.0 mg/kg/injection, schedule: Q04DX003 (ip), vehicle: saline with Tween-80 104 % of control | dose: 100.0 mg/kg/injection, schedule: Q04DX003 (ip), vehicle: saline with Tween-80 109 % of control | dose: 200.0 mg/kg/injection, schedule: Q04DX003 (ip), vehicle: saline with Tween-80 104 % of control

CC(C)(C)OC(=O)NC(CC(=O)OCc1ccccc1)C(=O)ON1C(=O)CCC1=O (stereo unspecified)
inactive: [1] 106 % of control | [2] 106 % of control | [3] 97 % of control

CC1=CC2C(O)(CC3(CO)OC3C3C4C(C)(C)C4(OC(=O)c4ccccc4)C(OC(=O)c4ccccc4)C(C)C32O)C1=O (stereo unspecified)
inactive: dose: 50.0 micrograms/kg/injection, schedule: Q01DX005 (ip), vehicle: saline + alcohol 94 % of control | dose: 100.0 micrograms/kg/injection, schedule: Q01DX005 (ip), vehicle: saline + alcohol 97 % of control | dose: 200.0 micrograms/kg/injection, schedule: Q01DX005 (ip), vehicle: saline + alcohol 99 % of control | dose: 400.0 micrograms/kg/injection, schedule: Q01DX005 (ip), vehicle: saline + alcohol 94 % of control | dose: 800.0 micrograms/kg/injection, schedule: Q01DX005 (ip), vehicle: saline + alcohol 105 % of control

CC[N+](CC)(CC)Cc1ccccc1
inactive: dose: 6.25 mg/kg/injection, schedule: Q04DX003 (ip), vehicle: saline sonified 109 % of control | dose: 12.5 mg/kg/injection, schedule: Q04DX003 (ip), vehicle: saline sonified 109 % of control | dose: 25.0 mg/kg/injection, schedule: Q04DX003 (ip), vehicle: saline sonified 109 % of control

O=S(=O)(Nc1nccs1)c1ccc(Nc2c3ccc(Cl)cc3nc3ncccc23)cc1
inactive: [4] 105 % of control | [5] 102 % of control | [6] 98 % of control

CCN(CC)CCCNc1cc(OC)cc2nc3cc(Cl)ccc3nc12
inactive: dose: 50.0 mg/kg/injection, schedule: Q01DX005 (ip), vehicle: saline 100 % of control | dose: 100.0 mg/kg/injection, schedule: Q01DX005 (ip), vehicle: saline 106 % of control

CC(N)C(=O)NC(C)P(=O)(O)O (stereo unspecified)
inactive: [7] 102 % of control | [8] 101 % of control | [9] 101 % of control

Nn1cn[nH]c1=S
inactive: [10] 100 % of control | [11] 97 % of control | [12] 98 % of control | [13] 100 % of control

Cc1cc(C)c(OC(=O)N(CCCl)N=O)c(C)c1
inactive: dose: 3.12 mg/kg/injection, schedule: Q01DX001 (ip), vehicle: saline with Tween-80 111 % of control | dose: 6.25 mg/kg/injection, schedule: Q01DX001 (ip), vehicle: saline with Tween-80 116 % of control

Oc1cc2c(cc1C(c1ccc3c(c1)OCO3)N1CCOCC1)OCO2 (stereo unspecified)
inactive: [14] 118 % of control | [15] 106 % of control | [16] 111 % of control

O=C(O)c1cc2cc([N+](=O)[O-])ccc2[se]1
inactive: dose: 12.5 mg/kg/injection, schedule: Q01DX009 (ip), vehicle: suspension in saline 100 % of control | dose: 25.0 mg/kg/injection, schedule: Q01DX009 (ip), vehicle: suspension in saline 101 % of control | [11] 86 % of control | dose: 50.0 mg/kg/injection, schedule: Q01DX009 (ip), vehicle: suspension in saline 102 % of control | [13] 100 % of control

COc1ccc(C2CC(=O)NC(NC#N)=N2)c(O)c1 (stereo unspecified)
inactive: [11] 104 % of control | [12] 102 % of control | [13] 100 % of control

CC1(NC(=O)C23CC4CC(CC(C4)C2)C3)CCC(C(C)(C)NC(=O)C23CC4CC(CC(C4)C2)C3)CC1 (stereo unspecified)
inactive: [4] 88 % of control | [5] 88 % of control | [6] 86 % of control

C=C(Br)S(=O)(=O)OCCCl
inactive: dose: 6.25 mg/kg/injection, schedule: Q01DX005 (ip), vehicle: saline with Tween-80 105 % of control | dose: 12.5 mg/kg/injection, schedule: Q01DX005 (ip), vehicle: saline with Tween-80 104 % of control

Cc1c(-c2ccc(C(=N)N)cc2)oc(-c2ccc(C(=N)N)cc2)c1C
inactive: dose: 3.13 mg/kg/injection, schedule: Q01DX009 (ip), vehicle: saline with Tween-80 104 % of control | [17] 112 % of control

[Cu].c1ccc2c3[n-]c(c2c1)/N=c1\[n-]/c(c2ccccc12)=N\c1[n-]c(c2ccccc12)/N=c1\[n-]/c(c2ccccc12)=N\3
inactive: [11] 104 % of control | [12] 93 % of control

CC[C@@H](C)C(=O)O[C@H]1[C@H](O)[C@H]2[C@@H](CN3C[C@@H](C)CC[C@H]3[C@@]2(C)O)[C@@H]2CC34O[C@]5(O)[C@@H](OC(=O)[C@@](C)(O)CC)CC[C@@]3(C)[C@@H]5[C@@H](OC(C)=O)[C@@H](OC(C)=O)[C@H]4[C@@]21O
inactive: dose: 0.1 mg/kg/injection, schedule: Q01DX005 (ip), vehicle: saline 102 % of control | dose: 0.4 mg/kg/injection, schedule: Q01DX005 (ip), vehicle: saline with Tween-80 100 % of control | dose: 25.0 micrograms/kg/injection, schedule: Q01DX005 (ip), vehicle: saline 97 % of control | dose: 50.0 micrograms/kg/injection, schedule: Q01DX005 (ip), vehicle: saline 94 % of control | dose: 100.0 micrograms/kg/injection, schedule: Q01DX005 (ip), vehicle: saline 94 % of control

CC(C)CC#N
inactive: [10] 90 % of control | [11] 100 % of control | [12] 100 % of control

CCCCCCC(=O)/C=c1\c(CC(=O)CCCCCC)nc2nnc(N)n12
inactive: [14] 96 % of control | [15] 100 % of control | [16] 88 % of control

O=C1Nc2ncnn2C1=O
inactive: [7] 108 % of control | [8] 111 % of control | [9] 99 % of control | dose: 400.0 mg/kg/injection, schedule: Q01DX009 (ip), vehicle: saline with Tween-80 96 % of control

OCC1OC(Oc2ccc(Cl)cc2)C(O)C1O (stereo unspecified)
inactive: dose: 50.0 mg/kg/injection, schedule: Q04DX002 (ip), vehicle: saline with Tween-80 105 % of control | dose: 100.0 mg/kg/injection, schedule: Q04DX002 (ip), vehicle: saline with Tween-80 98 % of control | dose: 200.0 mg/kg/injection, schedule: Q04DX002 (ip), vehicle: saline with Tween-80 112 % of control

O=c1[nH]c(=O)c2[nH]c(N=Nc3ccc(S(=O)(=O)O)cc3)nc2[nH]1
inactive: [1] 95 % of control | [2] 99 % of control | [3] 100 % of control

CC1(C)C[C@H](OC2CCCCO2)[C@H]2O[C@@]2(C)C1 (stereo partly specified)
inactive: dose: 100.0 mg/kg/injection, schedule: Q04DX002 (ip), vehicle: saline 103 % of control | dose: 200.0 mg/kg/injection, schedule: Q04DX002 (ip), vehicle: saline 102 % of control | dose: 400.0 mg/kg/injection, schedule: Q04DX002 (ip), vehicle: saline 96 % of control

c1cc[n+](CC[n+]2ccccn2)nc1
inactive: dose: 12.5 mg/kg/injection, schedule: Q01DX001 (ip), vehicle: saline 108 % of control and 111 % of control and 95 % of control | dose: 25.0 mg/kg/injection, schedule: Q01DX001 (ip), vehicle: saline 100 % of control (2×) and 122 % of control | dose: 50.0 mg/kg/injection, schedule: Q01DX001 (ip), vehicle: saline 100 % of control and 101 % of control and 92 % of control

COC(=O)c1ccccc1N=C/C(Cl)=C(/Cl)C(=O)O
inactive: dose: 6.25 mg/kg/injection, schedule: Q01DX009 (ip), vehicle: Klucel (hydroxypropylcellulose) (HPC) 100 % of control and 110 % of control and 96 % of control | dose: 12.5 mg/kg/injection, schedule: Q01DX009 (ip), vehicle: Klucel (hydroxypropylcellulose) (HPC) 100 % of control and 111 % of control and 117 % of control | dose: 25.0 mg/kg/injection, schedule: Q01DX009 (ip), vehicle: Klucel (hydroxypropylcellulose) (HPC) 113 % of control and 118 % of control and 121 % of control | dose: 50.0 mg/kg/injection, schedule: Q01DX009 (ip), vehicle: Klucel (hydroxypropylcellulose) (HPC) 113 % of control and 116 % of control and 119 % of control

O=S(=O)(c1ccc(Cl)c(Cl)c1)N(c1cccc(C(F)(F)F)c1)S(=O)(=O)c1ccc(Cl)c(Cl)c1
inactive: [17] 100 % of control | dose: 12.5 mg/kg/injection, schedule: Q01DX009 (ip), vehicle: saline with Tween-80 94 % of control | dose: 25.0 mg/kg/injection, schedule: Q01DX009 (ip), vehicle: saline with Tween-80 97 % of control

CCN=c1cc2sc3cc(NCC)c(C)cc3nc-2cc1C
inactive: dose: 12.5 mg/kg/injection, schedule: Q01DX009 (ip), vehicle: saline 97 % of control | [10] 99 % of control | [11] 101 % of control | [12] 90 % of control
